Measurements from patent US8703701B2 (Indiana University Research and Technology Corporation, priority 2009, dated 2014).
Values belong to the molecule of their own block, whether it stands above or below them. Starred links: 1 amine or outer side, 2 acyl side, 3 side chain; linkers in the order of their positions; H or OH if unused. Non-standard residues stand in square brackets, D forms with d. Residues, ends and D or L forms follow the SMILES beside them. Groups on a side chain read outwards from the residue. *: point of attachment. γGlu = O=C(O)[C@H](CCC(=O)[*:2])N[*:1]; Palmitoyl = CCCCCCCCCCCCCCCC(=O)*; Aib = CC(C)(N)C(=O)O

Tests used:
GLP-1 receptor = target: T1, GLP-1 receptor (Homo sapiens, UniProt P43220); test: cAMP induction, firefly luciferase reporter assay, GLP-1 receptor; type: cell-based; conditions: for Activity at GLP-1 Receptor % Relative Activity: compared to native GLP-1
T1 construct: expressed in transfected cells; host or cells: HEK293
T1 sequence (P43220 24-463): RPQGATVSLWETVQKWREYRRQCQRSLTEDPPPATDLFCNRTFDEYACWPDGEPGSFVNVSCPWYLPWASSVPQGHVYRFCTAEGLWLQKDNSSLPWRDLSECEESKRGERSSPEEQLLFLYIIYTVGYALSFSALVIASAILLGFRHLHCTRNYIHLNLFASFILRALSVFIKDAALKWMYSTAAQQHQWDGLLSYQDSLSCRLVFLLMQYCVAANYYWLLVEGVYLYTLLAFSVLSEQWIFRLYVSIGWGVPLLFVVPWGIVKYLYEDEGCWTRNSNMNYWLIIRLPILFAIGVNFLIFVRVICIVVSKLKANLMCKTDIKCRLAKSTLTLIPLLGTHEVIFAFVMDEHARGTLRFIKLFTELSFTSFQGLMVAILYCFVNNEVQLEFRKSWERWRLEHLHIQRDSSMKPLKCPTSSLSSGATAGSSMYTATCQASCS
Protocol: (§1) The ability of each peptide to induce cAMP was measured in a firefly luciferase-based reporter assay.
(§2) At the end of the incubation, 100 μL of LucLite luminescence substrate reagent (Perkin Elmer, Wellesley, Mass.) were added to each well. The plate was shaken briefly, incubated 10 min in the dark and light output was measured on MicroBeta-1450 liquid scintillation counter (Perkin-Elmer, Wellesley, Mass.).

glucagon receptor = target: T2, glucagon receptor (Homo sapiens, UniProt P47871); test: cAMP induction, firefly luciferase reporter assay, glucagon receptor; type: cell-based; conditions: for Activity at Glucagon Receptor % Relative Activity: compared to native glucagon
T2 construct: expressed in transfected cells; host or cells: HEK293
T2 sequence (P47871 26-477): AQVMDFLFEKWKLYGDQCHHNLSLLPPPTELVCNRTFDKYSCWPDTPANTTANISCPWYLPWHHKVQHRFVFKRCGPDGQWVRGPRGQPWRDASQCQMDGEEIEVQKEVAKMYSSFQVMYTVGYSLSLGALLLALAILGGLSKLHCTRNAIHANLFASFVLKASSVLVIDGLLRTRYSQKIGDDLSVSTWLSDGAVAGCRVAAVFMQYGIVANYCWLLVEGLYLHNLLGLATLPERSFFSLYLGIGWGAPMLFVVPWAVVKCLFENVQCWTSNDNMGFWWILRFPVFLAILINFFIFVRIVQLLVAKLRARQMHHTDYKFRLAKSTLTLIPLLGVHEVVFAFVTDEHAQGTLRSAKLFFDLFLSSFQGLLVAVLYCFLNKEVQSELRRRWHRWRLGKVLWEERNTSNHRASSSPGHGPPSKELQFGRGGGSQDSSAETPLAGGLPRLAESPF
Protocol: as §1, §2

[1] = Activity at GLP-1 Receptor EC50 (nM), Table 2A
[2] = EC50 (nM) at GLP-1 Receptor, Table 7B

SMILES: CSCC[C@H](NC(=O)[C@H](CC(C)C)NC(=O)[C@H](Cc1c[nH]c2ccccc12)NC(=O)[C@H](CCC(N)=O)NC(=O)[C@@H](NC(=O)[C@H](Cc1ccccc1)NC(=O)[C@H](CCC(=O)O)NC(=O)[C@H](CCC(N)=O)NC(=O)[C@H](C)NC(=O)[C@H](CCCNC(=N)N)NC(=O)[C@H](CCCCN)NC(=O)[C@H](CO)NC(=O)[C@H](CC(=O)O)NC(=O)[C@H](CC(C)C)NC(=O)[C@H](Cc1ccc(O)cc1)NC(=O)[C@H](CCCCN)NC(=O)[C@H](CO)NC(=O)[C@H](Cc1ccc(O)cc1)NC(=O)[C@H](CC(=O)O)NC(=O)[C@H](CO)NC(=O)[C@@H](NC(=O)[C@H](Cc1ccccc1)NC(=O)[C@@H](NC(=O)CNC(=O)[C@H](CCC(N)=O)NC(=O)[C@H](CO)NC(=O)[C@@H](N)Cc1c[nH]cn1)[C@@H](C)O)[C@@H](C)O)C(C)C)C(=O)N[C@@H](CC(N)=O)C(=O)N[C@H](C(N)=O)[C@@H](C)O [Peptide 1]
- EC50 (GLP-1 receptor; GLP-1 Receptor EC50 (nM), Table 1, HEK293 cells co-transfected with receptor and CRE-luciferase): 0.13 nM

SMILES: CSCC[C@H](NC(=O)[C@H](CC(C)C)NC(=O)[C@H](Cc1c[nH]c2ccccc12)NC(=O)[C@H](CCC(N)=O)NC(=O)[C@@H](NC(=O)[C@H](Cc1ccccc1)NC(=O)[C@H](CCC(=O)O)NC(=O)[C@H](CCCCN)NC(=O)[C@H](C)NC(=O)[C@H](CCCNC(=N)N)NC(=O)[C@H](CCCCN)NC(=O)[C@H](CCC(=O)O)NC(=O)[C@H](CC(=O)O)NC(=O)[C@H](CC(C)C)NC(=O)[C@H](Cc1ccc(O)cc1)NC(=O)[C@H](CCCCN)NC(=O)[C@H](CO)NC(=O)[C@H](Cc1ccc(O)cc1)NC(=O)[C@H](CC(=O)O)NC(=O)[C@H](CO)NC(=O)[C@@H](NC(=O)[C@H](Cc1ccccc1)NC(=O)[C@@H](NC(=O)CNC(=O)[C@H](CCC(N)=O)NC(=O)[C@@H](CO)NC(=O)[C@@H](N)Cc1c[nH]cn1)[C@@H](C)O)[C@@H](C)O)C(C)C)C(=O)N[C@@H](CC(N)=O)C(=O)N[C@H](C(N)=O)[C@@H](C)O [compound 20]
- EC50 (glucagon receptor; Activity at Glucagon Receptor EC50 (nM), Table 2A): 0.054 nM
- EC50 (GLP-1 receptor; [1]): 0.284 nM

SMILES: CSCC[C@H](NC(=O)[C@H](CC(C)C)NC(=O)[C@H](Cc1c[nH]c2ccccc12)NC(=O)[C@H](CCC(N)=O)NC(=O)[C@@H](NC(=O)[C@H](Cc1ccccc1)NC(=O)[C@H](CCC(=O)O)NC(=O)[C@H](CCCCN)NC(=O)[C@H](C)NC(=O)[C@H](CCCNC(=N)N)NC(=O)[C@H](CCCCN)NC(=O)C(C)(C)NC(=O)[C@H](CC(=O)O)NC(=O)[C@H](CC(C)C)NC(=O)[C@H](Cc1ccc(O)cc1)NC(=O)[C@H](CCCCN)NC(=O)[C@H](CO)NC(=O)[C@H](Cc1ccc(O)cc1)NC(=O)[C@H](CC(=O)O)NC(=O)[C@H](CO)NC(=O)[C@@H](NC(=O)[C@H](Cc1ccccc1)NC(=O)[C@@H](NC(=O)CNC(=O)[C@H](CCC(N)=O)NC(=O)[C@@H](CO)NC(=O)[C@@H](N)Cc1c[nH]cn1)[C@@H](C)O)[C@@H](C)O)C(C)C)C(=O)N[C@@H](CC(N)=O)C(=O)N[C@H](C(N)=O)[C@@H](C)O [compound 21]
- EC50 (GLP-1 receptor; [1]): 0.048 nM

SMILES: CCCCCCCCCCCCCCCC(=O)N[C@@H](CCC(=O)NCCCC[C@H](NC(=O)[C@H](CC(=O)O)NC(=O)[C@H](CO)NC(=O)[C@@H](NC(=O)[C@H](Cc1ccccc1)NC(=O)[C@@H](NC(=O)CNC(=O)[C@H](CCC(N)=O)NC(=O)C(C)(C)NC(=O)[C@@H](N)Cc1c[nH]cn1)[C@@H](C)O)[C@@H](C)O)C(=O)N[C@@H](CO)C(=O)N[C@@H](CCCCN)C(=O)N[C@@H](Cc1ccc(O)cc1)C(=O)N[C@@H](CC(C)C)C(=O)N[C@@H](CC(=O)O)C(=O)N[C@@H](CCC(=O)O)C(=O)N[C@@H](CCC(=O)O)C(=O)N[C@@H](C)C(=O)N[C@H](C(=O)N[C@@H](CCCNC(=N)N)C(=O)N[C@@H](CC(C)C)C(=O)N[C@@H](Cc1ccccc1)C(=O)N[C@H](C(=O)N[C@@H](CCC(=O)O)C(=O)N[C@@H](Cc1c[nH]c2ccccc12)C(=O)N[C@@H](CC(C)C)C(=O)N[C@@H](CCSC)C(=O)N[C@@H](CC(N)=O)C(=O)N[C@H](C(N)=O)[C@@H](C)O)[C@@H](C)CC)C(C)C)C(=O)O [compound 38] (H-H[Aib]QGTFTSDK([γGlu-Palmitoyl])SKYLDEEAVRLFIEWLMNT-NH2; N-terminus assumed)
- EC50 (GLP-1 receptor; [2]): 0.019 nM

The next lines start with the values.

- EC50 (GLP-1 receptor; [2]): 0.024 nM
SMILES: CCCCCCCCCCCCCCCC(=O)NCCCC[C@H](NC(=O)[C@H](CC(=O)O)NC(=O)[C@H](CO)NC(=O)[C@@H](NC(=O)[C@H](Cc1ccccc1)NC(=O)[C@@H](NC(=O)CNC(=O)[C@H](CCC(N)=O)NC(=O)C(C)(C)NC(=O)[C@@H](N)Cc1c[nH]cn1)[C@@H](C)O)[C@@H](C)O)C(=O)N[C@@H](CO)C(=O)N[C@@H](CCCCN)C(=O)N[C@@H](Cc1ccc(O)cc1)C(=O)N[C@@H](CC(C)C)C(=O)N[C@@H](CC(=O)O)C(=O)N[C@@H](CCC(=O)O)C(=O)N[C@@H](CCC(=O)O)C(=O)N[C@@H](C)C(=O)N[C@H](C(=O)N[C@@H](CCCNC(=N)N)C(=O)N[C@@H](CC(C)C)C(=O)N[C@@H](Cc1ccccc1)C(=O)N[C@H](C(=O)N[C@@H](CCC(=O)O)C(=O)N[C@@H](Cc1c[nH]c2ccccc12)C(=O)N[C@@H](CC(C)C)C(=O)N[C@@H](CCSC)C(=O)N[C@@H](CC(N)=O)C(=O)N[C@H](C(N)=O)[C@@H](C)O)[C@@H](C)CC)C(C)C [compound 40] (H-H[Aib]QGTFTSDK(Palmitoyl)SKYLDEEAVRLFIEWLMNT-NH2; N-terminus assumed)

- Activity at Glucagon Receptor % Relative Activity (glucagon receptor; Table 3A): 863%
- EC50 (GLP-1 receptor; Activity at GLP-1 Receptor EC50 [pM], Table 3A): 0.005 nM
- Activity at GLP-1 Receptor % Relative Activity (GLP-1 receptor; Table 3A): 500%
SMILES: CCCCCCCCCCCCCCCC(=O)N[C@@H](CCC(=O)N[C@@H](CCC(=O)NCCCC[C@H](NC(=O)[C@H](CC(=O)O)NC(=O)[C@H](CO)NC(=O)[C@@H](NC(=O)[C@H](Cc1ccccc1)NC(=O)[C@@H](NC(=O)CNC(=O)[C@H](CCC(N)=O)NC(=O)C(C)(C)NC(=O)[C@@H](N)Cc1c[nH]cn1)[C@@H](C)O)[C@@H](C)O)C(=O)N[C@@H](CO)C(=O)N[C@@H](CCCCN)C(=O)N[C@@H](Cc1ccc(O)cc1)C(=O)N[C@@H](CC(C)C)C(=O)N[C@@H](CC(=O)O)C(=O)NC(C)(C)C(=O)N[C@@H](CCCNC(=N)N)C(=O)N[C@@H](C)C(=O)N[C@@H](C)C(=O)N[C@@H](CCC(N)=O)C(=O)N[C@@H](CC(=O)O)C(=O)N[C@@H](Cc1ccccc1)C(=O)N[C@H](C(=O)N[C@@H](CCC(N)=O)C(=O)N[C@@H](Cc1c[nH]c2ccccc12)C(=O)N[C@@H](CC(C)C)C(=O)N[C@@H](CCSC)C(=O)N[C@@H](CC(=O)O)C(=O)N[C@H](C(N)=O)[C@@H](C)O)C(C)C)C(=O)O)C(=O)O [compound 42] (H-H[Aib]QGTFTSDK([γGlu-γGlu-Palmitoyl])SKYLD[Aib]RAAQDFVQWLMDT-NH2; N-terminus assumed)

- Activity at Glucagon Receptor % Relative Activity (glucagon receptor; Table 3A): 467%
- Activity at GLP-1 Receptor % Relative Activity (GLP-1 receptor; Table 3A): 575%
SMILES: CCCCCCCCCCCCCCCC(=O)N[C@@H](CCC(=O)NCCCC[C@H](NC(=O)[C@H](CC(=O)O)NC(=O)[C@H](CO)NC(=O)[C@@H](NC(=O)[C@H](Cc1ccccc1)NC(=O)[C@@H](NC(=O)CNC(=O)[C@H](CCC(N)=O)NC(=O)C(C)(C)NC(=O)[C@@H](N)Cc1c[nH]cn1)[C@@H](C)O)[C@@H](C)O)C(=O)N[C@@H](CO)C(=O)N[C@@H](CCCCN)C(=O)N[C@@H](Cc1ccc(O)cc1)C(=O)N[C@@H](CC(C)C)C(=O)N[C@@H](CC(=O)O)C(=O)NC(C)(C)C(=O)N[C@@H](CCCNC(=N)N)C(=O)N[C@@H](C)C(=O)N[C@@H](C)C(=O)N[C@@H](CCC(N)=O)C(=O)N[C@@H](CC(=O)O)C(=O)N[C@@H](Cc1ccccc1)C(=O)N[C@H](C(=O)N[C@@H](CCC(N)=O)C(=O)N[C@@H](Cc1c[nH]c2ccccc12)C(=O)N[C@@H](CC(C)C)C(=O)N[C@@H](CCSC)C(=O)N[C@@H](CC(=O)O)C(=O)N[C@H](C(N)=O)[C@@H](C)O)C(C)C)C(=O)O [compound 43] (H-H[Aib]QGTFTSDK([γGlu-Palmitoyl])SKYLD[Aib]RAAQDFVQWLMDT-NH2; N-terminus assumed)

- Activity at Glucagon Receptor % Relative Activity (glucagon receptor; Table 5): 1%
SMILES: CCCCCCCCCCCCCCCC(=O)N[C@@H](CCC(=O)NCCCC[C@H](NC(=O)[C@H](CC(=O)O)NC(=O)[C@H](CO)NC(=O)[C@@H](NC(=O)[C@H](Cc1ccccc1)NC(=O)[C@@H](NC(=O)CNC(=O)[C@H](CCC(N)=O)NC(=O)[C@H](CO)NC(=O)[C@H](Cc1c[nH]cn1)NC(C)=O)[C@@H](C)O)[C@@H](C)O)C(=O)N[C@@H](CO)C(=O)N[C@@H](CCCCN)C(=O)N[C@@H](Cc1ccc(O)cc1)C(=O)N[C@@H](CC(C)C)C(=O)N[C@@H](CC(=O)O)C(=O)N[C@@H](CCC(=O)O)C(=O)N[C@@H](CCC(N)=O)C(=O)N[C@@H](C)C(=O)N[C@@H](C)C(=O)N[C@@H](CCCCN)C(=O)N[C@@H](CCC(=O)O)C(=O)N[C@@H](Cc1ccccc1)C(=O)N[C@H](C(=O)N[C@@H](CS)C(=O)N[C@@H](Cc1c[nH]c2ccccc12)C(=O)N[C@@H](CC(C)C)C(=O)N[C@@H](CC(C)C)C(=O)N[C@@H](CC(=O)O)C(=O)N[C@H](C(N)=O)[C@@H](C)O)[C@@H](C)CC)C(=O)O [compound 57] (Ac-HSQGTFTSDK([γGlu-Palmitoyl])SKYLDEQAAKEFICWLLDT-NH2)

- EC50 (GLP-1 receptor; [2]): 0.013 nM
SMILES: CC[C@H](C)[C@H](NC(=O)[C@H](Cc1ccccc1)NC(=O)[C@H](CC(C)C)NC(=O)[C@H](CCCNC(=N)N)NC(=O)[C@@H](NC(=O)[C@H](C)NC(=O)[C@H](CCC(N)=O)NC(=O)[C@H](CCC(=O)O)NC(=O)[C@H](CC(=O)O)NC(=O)[C@H](CC(C)C)NC(=O)[C@H](Cc1ccc(O)cc1)NC(=O)[C@H](CCCCN)NC(=O)[C@H](CO)NC(=O)[C@H](Cc1ccc(O)cc1)NC(=O)[C@H](CC(=O)O)NC(=O)[C@H](CO)NC(=O)[C@@H](NC(=O)[C@H](Cc1ccccc1)NC(=O)[C@@H](NC(=O)CNC(=O)[C@H](CCC(N)=O)NC(=O)[C@@H](CO)NC(=O)[C@@H](N)Cc1c[nH]cn1)[C@@H](C)O)[C@@H](C)O)C(C)C)C(=O)N[C@@H](CS)C(=O)N[C@@H](Cc1c[nH]c2ccccc12)C(=O)N[C@@H](CC(C)C)C(=O)N[C@@H](CC(C)C)C(=O)N[C@@H](CC(=O)O)C(=O)N[C@H](C(N)=O)[C@@H](C)O [compound 87] (H-H[dS]QGTFTSDYSKYLDEQAVRLFICWLLDT-NH2; N-terminus assumed)
